# US6514971B1, “Cinnoline derivatives and use as medicine” (Zeneca Limited, priority 1996, dated 2003)
# Counter-ions that a name gives are not always drawn.
# Legend:
# [1] = biological target: T1, epidermal growth factor (EGF) receptor tyrosine kinase (Homo sapiens, UniProt P00533); test: In vitro receptor tyrosine kinase inhibition test (EGF receptor); format: biochemical
# T1 construct: made in house; host or cells: insect cells (baculovirus, as for Flt)
# Description: (§1) (a) In Vitro Receptor Tyrosine Kinase Inhibition Test
# This assay determines the ability of a test compound to inhibit tyrosine kinase activity. DNA encoding VEGF or epidermal growth factor (EGF) receptor cytoplasmic domains may be obtained by total gene synthesis (Edwards M, International Biotechnology Lab 5(3), 19-25, 1987) or by cloning. These may then be expressed in a suitable expression system to obtain polypeptide with tyrosine kinase activity. […] In the case of the VEGF receptor Flt (Genbank accession number X51602), a 1.7 kb DNA fragment encoding most of the cytoplasmic domain, commencing with methionine 783 and including the termination codon, described by Shibuya et al (Oncogene, 1990, 5: 519-524), was isolated from cDNA and cloned into a baculovirus transplacement vector (for example pAcYM1 (see The Baculovirus Expression System: A Laboratory Guide, L. A. King and R. D. Possee, Chapman and Hall, 1992) or pAc360 or pBlueBacHis (available from Invitrogen Corporation)). This recombinant construct was co-transfected into insect cells (for example Spodoptera frugiperda 21 (Sf21)) with viral DNA (eg Pharmingen BaculoGold) to prepare recombinant baculovirus. (Details of the methods for the assembly of recombinant DNA molecules and the preparation and use of recombinant baculovirus can be found in standard texts for example Sambrook et al, 1989. Molecular cloning—A Laboratory Manual, 2nd edition, Cold Spring Harbour Laboratory Press and O'Reilly et al, 1992, Baculovirus Expression Vectors—A Laboratory Manual. W. H. Freeman and Co. New York). For other tyrosine kinases for use in assays, cytoplasmic fragments starting from methionine 806 (KDR, Genbank accession number L04947) and methionine 668 (EGF receptor, Genbank accession number X00588) may be cloned and expressed in a similar manner.
# For expression of cFlt tyrosine kinase activity, Sf21 cells were infected with plaque-pure cFlt recombinant virus at a multiplicity of infection of 3 and harvested 48 hours later. Harvested cells were washed with ice cold phosphate buffered saline solution (PBS) (10 mM sodium phosphate pH7.4, 138 mM NaCl, 2.7 mM KCl) then resuspended in ice cold HNTG/PMSF (20 mM Hepes pH7.5, 150 mM NaCl, 10% v/v glycerol, 1% v/v Triton X100. 1.5 mM MgCl2, 1 mM ethylene glycol-bis(βaminoethyl ether) N,N,N′,N′-tetraacetic acid (EGTA), 1 mM PMSF (phenylmethylsulphonyl fluoride); the PMSF is added just before use from a freshly-prepared 100 mM solution in methanol) using 1 ml HNTG/PMSF per 10 million cells. The suspension was centrifuged for 10 minutes at 13.000 rpm at 4° C., the supernatant (enzyme stock) was removed and stored in aliquots at −70° C. Each new batch of stock enzyme was titrated in the assay by dilution with enzyme diluent (100 mM Hepes pH 7.4, 0.2 mM Na3VO4, 0.1% v/v Triton X100, 0.2 mM dithiothreitol). For a typical batch, stock enzyme is diluted 1 in 2000 with enzyme diluent and 50 μl of dilute enzyme is used for each assay well.
# (§2) A stock of substrate solution was prepared from a random copolymer containing tyrosine, for example Poly (Glu, Ala, Tyr) 6:3:1 (Sigma P3899), stored as 1 mg/ml stock in PBS at −20° C. and diluted 1 in 500 with PBS for plate coating.
# (§3) On the day before the assay 100 μl of diluted substrate solution was dispensed into all wells of assay plates (Nunc maxisorp 96-well immunoplates) which were sealed and left overnight at 4° C.
# (§4) On the day of the assay the substrate solution was discarded and the assay plate wells were washed once with PBST (PBS containing 0.05% v/v Tween 20) and once with 50 mM Hepes pH7.4.
# Test compounds were diluted with 10% dimethylsulphoxide (DMSO) and 25 μl of diluted compound was transferred to wells in the washed assay plates. “Total” control wells contained 10% DMSO instead of compound. Twenty five microliters of 40 mM MnCl2 containing 8 μM adenosine-5′-triphosphate (ATP) was added to all test wells except “blank” control wells which contained MnCl2 without ATP. […]
# [2] = biological target: T2, VEGF receptor tyrosine kinase (Homo sapiens, UniProt P17948); test: In vitro receptor tyrosine kinase inhibition test (VEGF receptor); format: biochemical
# T2 construct: encoding most of the cytoplasmic domain, commencing with methionine 783 and including the termination codon; made in house; host or cells: Spodoptera frugiperda Sf21 insect cells (baculovirus); cleared Triton X100 lysate used as enzyme stock
# T2 sequence (P17948 781-1338 limits assumed): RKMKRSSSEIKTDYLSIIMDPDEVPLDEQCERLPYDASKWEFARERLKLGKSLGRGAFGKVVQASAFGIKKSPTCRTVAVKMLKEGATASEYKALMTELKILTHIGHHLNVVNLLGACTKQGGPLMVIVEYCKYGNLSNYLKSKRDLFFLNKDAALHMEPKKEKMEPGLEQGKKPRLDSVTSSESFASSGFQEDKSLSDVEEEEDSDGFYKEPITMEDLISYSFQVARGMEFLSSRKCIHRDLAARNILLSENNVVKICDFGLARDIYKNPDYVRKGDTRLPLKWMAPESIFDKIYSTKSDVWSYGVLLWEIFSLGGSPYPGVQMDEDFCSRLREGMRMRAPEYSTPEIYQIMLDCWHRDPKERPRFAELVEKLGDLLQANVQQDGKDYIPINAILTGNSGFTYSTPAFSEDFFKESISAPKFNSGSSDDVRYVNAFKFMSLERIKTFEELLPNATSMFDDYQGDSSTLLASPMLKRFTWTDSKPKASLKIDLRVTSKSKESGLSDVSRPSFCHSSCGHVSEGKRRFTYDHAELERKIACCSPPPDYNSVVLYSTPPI
# Description: as §1
# This assay determines the ability of a test compound to inhibit tyrosine kinase activity. […] These may then be expressed in a suitable expression system to obtain polypeptide with tyrosine kinase activity. […] This recombinant construct was co-transfected into insect cells (for example Spodoptera frugiperda 21 (Sf21)) with viral DNA (eg Pharmingen BaculoGold) to prepare recombinant baculovirus.
# For expression of cFlt tyrosine kinase activity, Sf21 cells were infected with plaque-pure cFlt recombinant virus at a multiplicity of infection of 3 and harvested 48 hours later. […] The suspension was centrifuged for 10 minutes at 13.000 rpm at 4° C., the supernatant (enzyme stock) was removed and stored in aliquots at −70° C. Each new batch of stock enzyme was titrated in the assay by dilution with enzyme diluent (100 mM Hepes pH 7.4, 0.2 mM Na3VO4, 0.1% v/v Triton X100, 0.2 mM dithiothreitol). For a typical batch, stock enzyme is diluted 1 in 2000 with enzyme diluent and 50 μl of dilute enzyme is used for each assay well.
# as §2, §3, §4
# Test compounds were diluted with 10% dimethylsulphoxide (DMSO) and 25 μl of diluted compound was transferred to wells in the washed assay plates. “Total” control wells contained 10% DMSO instead of compound. Twenty five microliters of 40 mM MnCl2 containing 8 μM adenosine-5′-triphosphate (ATP) was added to all test wells except “blank” control wells which contained MnCl2 without ATP. To start the reactions 50 μl of freshly diluted enzyme was added to each well and the plates were incubated at room temperature for 20 minutes. The liquid was then discarded and the wells were washed twice with PBST. […] Plates were then incubated for 20-60 minutes at room temperature until the optical density value of the “total” control wells, measured at 405 nm using a plate reading spectrophotometer, was approximately 1.0.
# T1 sequence (P00533 669-1210 limits assumed): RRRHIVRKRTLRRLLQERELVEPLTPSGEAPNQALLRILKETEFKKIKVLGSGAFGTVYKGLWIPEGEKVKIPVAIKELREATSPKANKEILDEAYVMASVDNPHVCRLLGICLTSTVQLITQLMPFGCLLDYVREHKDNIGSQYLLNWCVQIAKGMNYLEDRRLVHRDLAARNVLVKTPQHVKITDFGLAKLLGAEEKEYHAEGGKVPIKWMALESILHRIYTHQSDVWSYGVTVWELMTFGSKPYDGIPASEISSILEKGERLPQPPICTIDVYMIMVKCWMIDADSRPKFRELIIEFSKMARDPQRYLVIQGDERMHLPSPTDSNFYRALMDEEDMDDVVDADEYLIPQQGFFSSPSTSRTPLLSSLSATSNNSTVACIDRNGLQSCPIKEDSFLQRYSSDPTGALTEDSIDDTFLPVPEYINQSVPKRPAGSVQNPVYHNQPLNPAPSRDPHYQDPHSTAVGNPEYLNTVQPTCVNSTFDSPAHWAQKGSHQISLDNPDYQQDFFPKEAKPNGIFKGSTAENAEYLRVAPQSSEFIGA
SMILES,melting point,activity against epidermal growth factor (EGF) receptor tyrosine kinase [1],activity against VEGF receptor tyrosine kinase [2]
COc1cc2c(Nc3cc(O)c(C)cc3F)cnnc2cc1OCc1nccn1C.Cl,215 to 221 °C,,
COc1cc2c(Nc3cc(O)c(C)cc3F)cnnc2cc1OCc1ccncc1.Cl,244 to 252 °C,,
"COCCOc1cc2nncc(Nc3ccc(Br)cc3F)c2cc1OC (as salt: hydrochloride) [Example 5, 4-(4-bromo-2-fluoroanilino)-6-methoxy-7-(2-methoxyethoxy)cinnoline]",278 to 281 °C,,
"COc1cc2c(Nc3cc(O)c(Cl)cc3F)cnnc2cc1OCc1ccccc1 (as salt: hydrochloride) [Example 6, 7-benzyloxy-4-(4-chloro-2-fluoro-5-hydroxyanilino)-6-methoxycinnoline]",280 to 284 °C,,
"COc1cc2c(Nc3cc(OC(C)=O)c(Cl)cc3F)cnnc2cc1OCc1ccccc1 (as salt: hydrochloride) [Example 7, 4-(5-acetoxy-4-chloro-2-fluoroanilino)-7-benzyloxy-6-methoxycinnoline]",240 to 247 °C,,
"COc1cc2c(Nc3cc(O)c(Cl)cc3F)cnnc2cc1OCc1ccncc1 (as salt: hydrochloride) [Example 10, 4-(4-chloro-2-fluoro-5-hydroxyanilino)-6-methoxy-7-(4-pyridylmethoxy)cinnoline]",243 to 251 °C,,
"COCCOc1cc2nncc(Nc3cc(O)c(C)cc3F)c2cc1OC (as salt: hydrochloride) [Example 11, 4-(2-fluoro-5-hydroxy-4-methylanilino)-6-methoxy-7-(2-methoxyethoxy)cinnoline]",283 to 290 °C,,
"COc1cc2c(Nc3cc(O)c(Cl)cc3F)cnnc2cc1OCCCN1CCOCC1 (as salt: hydrochloride) [Example 12, 4-(4-chloro-2-fluoro-5-hydroxyanilino)-6-methoxy-7-(3-morpholinopropoxy)cinnoline]",218 to 225 °C,,
"COc1cc2c(Nc3cc(O)c(Cl)cc3F)cnnc2cc1OCCCN1CCCC1 (as salt: hydrochloride) [Example 13, 4-(4-chloro-2-fluoro-5-hydroxyanilino)-6-methoxy-7-(3-pyrrolidinopropoxy)cinnoline]",240 to 245 °C,,
"COc1ccc2c(Nc3ccc(C)c(O)c3)cnnc2c1 (as salt: hydrochloride) [Example 14, 4-(3-hydroxy-4-methylanilino)-7-methoxycinnoline]",270 to 275 °C,,
"COc1cc2nncc(Nc3cc(O)c(C)cc3F)c2cc1OC (as salt: hydrochloride) [Example 21, 4-(2-fluoro-5-hydroxy-4-methylanilino)-6,7-dimethoxycinnoline]",251 to 253 °C,,
"COc1cc2nncc(Nc3cc(O)c(Cl)cc3F)c2cc1OC (as salt: hydrochloride) [Example 22, 4-(4-chloro-2-fluoro-5-hydroxyanilino)-6,7-dimethoxycinnoline]",255 to 256 °C,,
"COCCOCCOc1cc2nncc(Nc3cc(O)c(C)cc3F)c2cc1OC (as salt: hydrochloride) [Example 23, 4-(2-fluoro-5-hydroxy-4-methylanilino)-6-methoxy-7-[2-(2-methoxyethoxy)ethoxy]cinnoline]",250 to 256 °C,,
COCCOc1cc2nncc(Nc3cc(O)c(C)cc3F)c2cc1OC [4-(2-fluoro-5-hydroxy-4-methylanilino)-6-methoxy-7-(2-methoxyethoxy)cinnoline],,lack of significant activity,good activity
COc1cc2c(Nc3cc(O)c(C)cc3F)cnnc2cc1OCc1nccn1C [4-(2-fluoro-5-hydroxy-4-methylanilino)-6-methoxy-7-[(1-methylimidazol-2-yl)methoxy]cinnoline],,lack of significant activity,good activity
COc1cc2c(Nc3cc(O)c(C)cc3F)cnnc2cc1OCc1csc(C)n1 [4-(2-fluoro-5-hydroxy-4-methylanilino)-6-methoxy-7-[(2-methylthiazol-4-yl)methoxy]cinnoline],,lack of significant activity,good activity
"COc1cc2nncc(Nc3ccc(C)c(O)c3)c2cc1OC [Example 1, 4-(3-hydroxy-4-methylanilino)-6,7-dimethoxycinnoline]",240 to 244 °C,,
"COCCOc1cc2nncc(Nc3cc(O)c(Cl)cc3F)c2cc1OC [Example 8, 4-(4-chloro-2-fluoro-5-hydroxyanilino)-6-methoxy-7-(2-methoxyethoxy)cinnoline]",,lack of significant activity,good activity
"COCCOc1cc2nncc(Nc3cc(O)c(Br)cc3F)c2cc1OC [Example 9, 4-(4-bromo-2-fluoro-5-hydroxyanihno)-6-methoxy-7-(2-methoxyethoxy)cinnoline]",,lack of significant activity,good activity
"COCCOc1cc2nncc(Oc3cc(O)c(C)cc3F)c2cc1OC [Example 20, 4-(2-fluoro-5-hydroxy-4-methylphenoxy)-6-methoxy-7-(2-methoxyethoxy)cinnoline]",267 to 273 °C,,
